Assay: Body temperature of mice after intravenous injection
Type: in vivo
Settings: for body temperature at 0 min: amount injected as listed per substance
Protocol: Type: Out-breed, white NMRI
Average body weight: 24-27 gm
Diet: Standard food pellet
Mice fasted 12-15 hrs. prior to testing (water given during this period)
Mice all separated from one another
Mice kept in quiet and dark environment
Testing time: 1 p.m.-3 p.m. each day
Test solution is prepared by:
(b) dissolving a known amount of the refined brain extract in 0.4 ml of trishydrochloric buffer and adjusting the pH of the solution to from about 7.0 to about 7.4 by titrating with microdrops of 1 M or 0.1 M sodium hydroxide solution.
Volume of solution injected into mice:
Solution is at room temperature when injected into mice.
Mouse is placed in restrainer
Injection is made in the tail vein
Injection time: 2 minutes
Body temperature is measured by inserting a thermistor into the anal cavity to a depth of 11/2 cm (thermistor is made by Thermovit, Fu. Armatherm, Lemgo, W. Germany)
Temperature measurements are begun immediately after injection, i.e., 2 minutes after injection started
The extract obtained from the brain of 40 lungfish is used. Five mice are used in obtaining the data on the aroused lungfish and nine mice are used for the data on the estivating lungfish.

Structure (SMILES) | body temperature at 0 min (pH 7.0-7.4) | body temperature at 5 min | body temperature at 10 min | body temperature at 20 min | body temperature at 30 min | body temperature at 40 min | body temperature at 50 min | body temperature at 60 min | body temperature at 2 min | other results
CC(=O)[O-].[Na+] [1.0 M SODIUM ACETATE, SODIUM ACETATE] | 37.0 | 37.5 | 38.0 | 38.3 | 38.5 | 38.0 | 38.1 | 38.2 |  | body temperature at 0 min (pH 7.0-7.4, listed as 3.0 M SODIUM ACETATE): 37.5; body temperature at 5 min (listed as 3.0 M SODIUM ACETATE): 36.2; body temperature at 10 min (listed as 3.0 M SODIUM ACETATE): 37.0; body temperature at 20 min (listed as 3.0 M SODIUM ACETATE): 38.0; body temperature at 30 min (listed as 3.0 M SODIUM ACETATE): 37.7; body temperature at 40 min (listed as 3.0 M SODIUM ACETATE): 38.1; body temperature at 50 min (listed as 3.0 M SODIUM ACETATE): 38.6; body temperature at 60 min (listed as 3.0 M SODIUM ACETATE): 38.5
O=C([O-])O.[K+] [3.0 M KHCO3, KHCO3] | 37.1 | 35.0 | 36.5 | 37.8 | 37.9 | 38.4 | 38.4 | 38.0 | 34.7 | body temperature at 0 min (pH 7.0-7.4, listed as 0.3 M KHCO3): 37.6; body temperature at 0 min (pH 7.0-7.4, listed as 1.0 M KHCO3): 38.0; body temperature at 2 min (listed as 0.3 M KHCO3): 36.3; body temperature at 2 min (listed as 1.0 M KHCO3): 37.2; body temperature at 5 min (listed as 0.3 M KHCO3): 37.2; body temperature at 5 min (listed as 1.0 M KHCO3): 37.3; body temperature at 10 min (listed as 0.3 M KHCO3): 38.0; body temperature at 10 min (listed as 1.0 M KHCO3): 38.5; body temperature at 20 min (listed as 1.0 M KHCO3): 39.5; body temperature at 30 min (listed as 0.3 M KHCO3): 38.3; body temperature at 30 min (listed as 1.0 M KHCO3): 39.0; body temperature at 40 min (listed as 1.0 M KHCO3): 39.1; body temperature at 50 min (listed as 0.3 M KHCO3): 38.3
[Cl-].[Na+] [3.0 M NaCl, NaCl] | 36.0 | 36.5 | 38.1 | 37.9 | 37.4 | 37.4 | 37.6 | 37.7 | 34.9 | 
N[C@@H](CC(=O)O)C(=O)O [ASPARTIC ACID] | 36.7 | 36.7 | 38.0 | 37.5 | 37.6 | 37.8 | 37.8 | 37.8 | 35.5 | 
O=C(O)CCCC(=O)O [GLUTARIC ACID] | 36.6 | 37.0 | 38.1 | 38.5 | 38.5 | 38.4 | 38.6 | 39.0 | 36.5 | 
N[C@@H](Cc1c[nH]c2ccccc12)C(=O)O [TRYPTOPHAN] | 36.9 | 36.8 | 37.1 | 37.4 | 36.5 | 36.8 | 37.0 | 36.9 | 36.4 | 
